Data taken from patent publication US9486502B2, “Methods of administering interferon gamma to absorb fluid from the subretinal space” (The United States of America, as represented by the …, priority 2008, dated 2016).

Experiments:
hfRPE cells [1] = assay: BrdU incorporation assay, hfRPE proliferation; assay type: cell-based, human; details: for effect on hfRPE proliferation (BrdU incorporation): 0.5-80 ng/ml; for effect on the IFNγ effect on hfRPE proliferation: added one hour prior to IFNγ
Description: BrdU incorporation was performed as described in Li, R. et al., 2007, Invest Ophthalmol Vis Sci, 48, 5722-5732, incorporated by reference in its entirety herein. IFNγ, TNFα, and IL-1β were obtained from Peprotech, Rocky Hill, N.J., and Universal Type I Interferon (cat: 11200-1) or human interferon beta la were from PBL biomedical laboratories (New Brunswick, N.J.). Cumulative effects were measured by adding VEGF165, EGF and bFGF (Peprotech), and PDGF-BB (R & D Systems) with IFNγ. Anti-human IFNγ R1 blocking antibody (R & D Systems, Minneapolis, Minn.), JAK inhibitor I, AG490, or JAK3 inhibitor II (EMD Biosciences, Gibbstown, N.J.) was added to the cells one hour prior to the addition of IFNγ. SFM was used as the negative control and SFM supplemented with 5% serum was used as positive control. After treatment for 48 hours, RPE cells were incubated with BrdU for 24 hours. The proliferation rate was evaluated using a Cell proliferation ELISA BrdU Kit (Roche, Ind.). Quadruplicate wells were used for each condition and the experiments were repeated at least two times using cell cultures from different donors. Cell viability was evaluated using a Live/Dead Viability/Cytotoxicity Kit (Invitrogen).

hfCHC cells = assay: BrdU incorporation assay, human fetal choroidal cell proliferation; assay type: cell-based
hfRPE cells [2] = assay: wound healing assay, hfRPE migration; assay type: cell-based, human; details: 48 hours, proliferation suppressed with mitomycin C
Description: The wound healing assay was used to study the effects of inflammatory cytokines on hfRPE cell migration, as described previously in Li, R., et al. Invest Ophthalmol Vis Sci, 2007, 48, 5722-5732, incorporated herein by reference in its entirety. Cell proliferation was suppressed by incubation with 10 μg/ml mitomycin C (Sigma) for 2 hours before all migration experiments. A circular denuded area (7 mm in diameter) was made in each well using a custom designed cell scraper. After incubation with various inflammatory cytokines for 48 hours, cells were fixed with cold methanol and stained with ethidium homodimer-1 (EthD-1, Invitrogen) according to the manufacturer's instructions. Cell migration was quantified by counting the average number of cells that migrated into the denuded area in 16 microscope fields surrounding the circumference of the denuded area. Each condition was tested in triplicate and repeated using cells from different donors.

hfRPE monolayers = assay: fluid transport (JV, TEP, RT) across hfRPE monolayers in modified Üssing chamber; assay type: cell-based, human; details: for effect on the effects of IFNγ on JV: Rp-8-Br-cAMPS 2 μM pretreatment
Excerpt: Confluent monolayers of hfRPE cultured on transwells were mounted in a modified Üssing chamber and transepithelial water flow measurements (JV) were made with a capacitance probe technique as described previously in Maminishkis, A., et al., Invest Ophthalmol Vis Sci, 2006, 47, 3612-3624; Shi, G., et al., Invest Ophthalmol Vis Sci, 2008, 49, 4620-4630; Edelman, J. L., et al., Invest Ophthalmol Vis Sci, 1991, 32, 3033-3040; Jiang, C., et al., Science, 1993, 262, 424-427; and Maminishkis, A., et al., Invest Ophthalmol Vis Sci, 2002, 43, 3555-3566, each incorporated herein by reference in its entirety.
Tissue viability was ascertained by recording transepithelial potential (TEP) and total tissue resistance (RT). It should be noted that the solution composition changes in this chamber were relatively slow (≈1-2 chamber volumes per minute) and the data sampling rate was once per minute, more than two orders of magnitude slower than the sampling rate in the electrophysiology chamber (see below). Therefore it was not possible to record fast changes, in seconds or minutes, in JV, TEP, or RT. After addition of IFNγ to the apical or basal baths, steady-state JV, TEP, and RT were recorded for 20-30 minutes. In control experiments, successive additions of IFNγ were made to test for the repeatability and reversibility of responses. To block IFNγ effects, RPE cells were incubated for 30-60 minutes with a blocking antibody against IFNγ R1, JAK inhibitor I, PKA inhibitors (H-89, EMD Biosciences; RP-8-Br-cAMPS, Sigma-Aldrich), nitric oxide synthase inhibitor (aminoguanidine hydrochloride, Sigma-Aldrich), P38 MAPK inhibitors (SB203580 or SB20290), or CHX. Other components of this signaling pathway were studied using P38 MAPK inhibitors (SB203580 and SB202190). Relatively specific Cl channel inhibitors, CFTRinh-172 or DIDS (EMD Biosciences, La Jolla, Calif.), were used to block cAMP or Ca^2+-activated Cl channels; experiments with CFTRinh-172 were performed as described in Muanprasat, C., et al., J Gen Physiol, 2004, 124, 125-137, incorporated herein by reference in its entirety. In chronic experiments, paired hfRPE tissues with matched RT values were incubated for 4-24 hours with IFNγ or CHX. The subsequent changes in JV, RT, and TEP were measured in Ringer's solution or serum free cell culture media as previously described in Shi, G., et al., Invest Ophthalmol Vis Sci, 2008 and Maminishkis, A., et al., Invest Ophthalmol Vis Sci, 2006, 47, 3612-3624, each incorporated herein by reference in its entirety. Intracellular levels of NO were elevated with 1-Hydroxy-2-oxo-3-(3-aminopropyl)-3-isopropyl-1-triazene (NOC-5, Enzo Life Sciences, Plymouth, Pa.). 8-Br-cGMP was purchased from Sigma-Aldrich.

rat RPE = assay: in vivo retinal re-attachment assay (OCT)
Description: All animal experiments were conducted in compliance with the ARVO Statement for the use of Animals in Ophthalmic and Vision Research, and the protocol was approved by the Animal Care and Use Committee of the National Institutes of Health. The procedures have been described in detail in Maminishkis, A., et al., Invest Ophthalmol Vis Sci, 2006, 47, 3612-3624, incorporated by reference in its entirety herein. Briefly, retinal detachments were created in long-Evans rats by injecting 0.5 to 3 μl of modified phosphate-buffered saline (MPBS) Ringer's solution into the sub-retinal space (SRS), which separates the photoreceptor outer segments and the apical membrane of the RPE. In the control portion of each experiment (at 0-70 minutes after creation of the retinal detachment), the rate of change of bleb volume was measured. The control period of “constant” volume was defined by JV≦2 μl hr cm over at least 40 minutes. Any control injections that exceeded this threshold rate were rejected from subsequent analysis.
IFNγ was dissolved in MPBS, mixed with Celluvisc® solution (1:1) and applied as eye-drops (0.4 mL). Optical coherence tomography (OCT) imaging (Institute of Applied Physics, Russian Academy of Science, Nizhniy Novgorod, Russia) was used to measure the time course of the detachment volume change.
A previously tested in vivo rodent model of retinal detachment was used to measure the effect of IFNγ on re-absorption following retinal detachment, as described in Example 11 and in Maminishkis, A., et al., Invest Ophthalmol Vis Sci, 2002, 43, 3555-3566, incorporated herein by reference in its entirety. Initial detachment was created by injecting approximately 1 μl of osmotically-balanced, modified phosphate-buffered saline (MPBS) Ringer's solution into the extracellular space, i.e. the sub-retinal space (SRS). After stabilization of the detachment, IFNγ (40 μl of 100 ng/ml) was added to the anterior surface of the eye via eye drops (Celluvisc®). A series of 3D OCT images were recorded at different time points.

[3] = multiple instillations per day for months; literature; cited from earlier work
[4] = Phase I study of topical interferon gamma-1b in CME secondary to uveitis (OCT macular thickness); assay type: in vivo, human; details: patients with CME secondary to uveitis, topical instillation(s), OCT post-instillation
Excerpt: To test whether cystoid macular edema (CME), secondary to uveitis, is caused by the disequilibrium of the Jak/Stat and mTor signal transduction pathways in the retinal pigment epithelium (RPE), interferon gamma-1β topically applied in human patients. Five participants with CME secondary to uveitis receive a topical ocular instillation of interferon gamma-1b in a Phase I, non-randomized, prospective, uncontrolled, dose-escalation, single-center study. The study involves a one-time instillation or series of instillations of interferon gamma-1b on the cornea and measurement of a response with optical coherence tomography (OCT) over a three hour period.
A 25% decrease in macular thickness is observed at a post-instillation as compared to baseline. In the study, the first two participants receive one instillation (each instillation contains […] in 0.05 mL solution) on the cornea at time zero, the next two participants receive two instillations, 10 minutes apart, for a total dosage of 20 μg, and the final participant receives three instillations, 10 minutes apart, for a total of 30 μg. OCT will be obtained at −60 minutes, −30 minutes and just before the instillation(s). […]
Participants with CME secondary to uveitis are treated with ocular instillation(s) of interferon gamma-1b. […] The effect on the retinal thickness is measured using OCT measurements as indicated below. […]

In the case of “IL-1β: inflammatory cytokine obtained from Peprotech; ICM component”, the “effect on hfRPE proliferation (BrdU incorporation)” value (hfRPE cells [1]) is reported as “no significant effect”, the “effect on hfCHC (human fetal choroidal) cell proliferation” value (hfCHC cells) is reported as “significantly stimulated” and the “effect on hfRPE cell migration” value (hfRPE cells [2]) is reported as “no significant effect”.

With JAK inhibitor I the “effect on the IFNγ effect on hfRPE proliferation” value (“effect on the IFNγ effect” below) (hfRPE cells [1]) was “block”, the “effect on base level of fluid transport (JV)” value (hfRPE monolayers; JAK inhibitor I 5 μM alone) was “no significant effect” and the “effect on IFNγ increase in JV” value (hfRPE monolayers; JAK inhibitor I 5 μM, 0.5-1 hours prior to IFNγ) was “significantly blocked”.

For TNFα, the “effect on hfRPE proliferation (BrdU incorporation)” value (hfRPE cells [1]) was “weak stimulatory effect”, the “concentration at which the stimulatory effect reached statistical significance” value (hfRPE cells [1]; P <0.05) was 80 ng/mL and the “effect on hfCHC (human fetal choroidal) cell proliferation” value (hfCHC cells) was “significantly stimulated”. The “effect on hfRPE cell migration” value (hfRPE cells [2]) was “no significant effect”.

With `Nc1ncnc2c1nc(Br)n2C1OC2COP(O)(=S)OC2C1O` (stereo not drawn) [Rp-8-Br-cAMPS] the “effect on the effects of IFNγ on JV” value (hfRPE monolayers) was “completely blocked”, the “effect on the effects of IFNγ on JV” value (hfRPE monolayers; listed as Rp-8-Br-cAMPs) was “blocked” and the “effect on baseline JV” value (hfRPE monolayers; Rp-8-Br-cAMPS 2 μM, approximately 40 minutes) was “no effect”. The “JV after Rp-8-Br-cAMPS” value (hfRPE monolayers; six experiments, steady-state baseline 8.9±1.2) was 10.4±2.0 μl·cm^−2·hr^−1, the “reduction in IFNγ-induced absorption rate” value (rat RPE; PKA inhibitor alone injected into subretinal space, FIG. 23D) was roughly 40% and the “effect on IFNγ induced decrease in detachment volume” value (rat RPE; pre-injection of 50 μM PKA inhibitor alone) was “partially blocked”.

With `N#C/C(=C\c1ccc(O)c(O)c1)C(=O)NCc1ccccc1` [AG490, reference compound] the “effect on the IFNγ effect” value (hfRPE cells [1]) was “block”.

In the case of IFNα, the “effect of type I IFN on hfRPE proliferation” value (hfRPE cells [1]; data not shown) is listed as “no effect” and the “side effects reported from topical administration” value [3] is listed as “follicular conjunctivis and conjunctival injection”.

In the case of `COc1cc2ncnc(Nc3ccc(O)c(Br)c3)c2cc1OC` [JAK3, reference compound], the “effect on the IFNγ effect” value (hfRPE cells [1]) is reported as “not”.

B1: interferon gamma-1b: biologic response modifier, single chain polypeptide containing 140 amino acids (Actimmune®) (protein, UniProt P01579 24-161, looked up)
Interferon gamma: QDPYVKEAENLKKYFNAGHSDVADNGTLFLGILKNWKEESDRKIMQSQIVSFYFKLFKNFKDDQSIQKSVETIKEDMNVKFFNSNKKKRDDFEKLTNYSVTDLNVQRKAIHELIQVMAELSPAAKTGKRKRSQMLFRG
modifications: interferon gamma-1b
In the case of B1, the “decrease in (central) macular thickness versus baseline” value [4] is reported as 25%.
